Reference: paper PMC7686313, “Phase 1 study of mTORC1/2 inhibitor sapanisertib (TAK-228) in advanced solid tumours, with an expansion phase in renal, endometrial or bladder cancer” (British Journal of Cancer, 2020)

Assay: Safety (adverse events, NCI CTCAE v4.0), expansion phase
Settings: expansion QD 5 mg
Excerpt: Based on data collected during dose-escalation, the expansion phase evaluated the safety and efficacy of QD and QW sapanisertib in patients with RCC, endometrial or bladder cancer. Patients could continue receiving sapanisertib for ≤1 year (or beyond, if the investigator and sponsor agreed) in the absence of disease progression or unacceptable toxicity.
Patients who received ≥1 dose of sapanisertib were included in the safety population. The response-evaluable population included patients who received ≥1 dose of sapanisertib, had measurable disease at baseline, and had ≥1 postbaseline assessment. […] Adverse events (AEs) were assessed using the National Cancer Institute Common Terminology Criteria for Adverse Events, v4.0. Patients were provided with a home blood-glucose meter to monitor their fasting predose blood-glucose measurements to assess hyperglycaemia as an on-target AE and PD marker.

## CC(C)n1nc(-c2ccc3oc(N)nc3c2)c2c(N)ncnc21 [Sapanisertib]
  Abdominal pain, all-grade AE of any cause: 7 (18) n (%)
  Abdominal pain, grade ≥3 AE of any cause: 3 (8) n (%)
  Acute kidney injury, grade ≥3 AE of any cause: 2 (5) n (%)
  Acute kidney injury, treatment-related AE: 2 (5) n (%)
  Anaemia, all-grade AE of any cause: 6 (15) n (%)
  Anaemia, grade ≥3 AE of any cause: 1 (3) n (%)
  Anaemia, treatment-related AE: 2 (5) n (%)
  Any AE: 39 (100) n (%)
  Any AE resulting in dose modification/interruption: 27 (69) n (%)
  Any AE resulting in treatment discontinuation: 7 (18) n (%)
  Any SAE: 19 (49) n (%)
  Any grade ≥3 AE: 30 (77) n (%)
  Any treatment-related AE: 39 (100) n (%)
  Any treatment-related SAE: 5 (13) n (%)
  Any treatment-related grade ≥3 AE: 18 (46) n (%)
  Arthralgia, all-grade AE of any cause: 2 (5) n (%)
  Asthenia, grade ≥3 AE of any cause: 1 (3) n (%)
  Asthenia, treatment-related AE: 7 (18) n (%)
  Asthenia, treatment-related grade ≥3 AE: 1 (3) n (%)
  Blood creatinine increased, all-grade AE of any cause: 5 (13) n (%)
  Blood creatinine increased, treatment-related AE: 3 (8) n (%)
  Constipation, all-grade AE of any cause: 10 (26) n (%)
  Constipation, grade ≥3 AE of any cause: 0 (0) n (%)
  Cough, all-grade AE of any cause: 9 (23) n (%)
  Decreased appetite, all-grade AE of any cause: 20 (51) n (%)
  Decreased appetite, treatment-related AE: 17 (44) n (%)
  Dehydration, all-grade AE of any cause: 6 (15) n (%)
  Dehydration, grade ≥3 AE of any cause: 0 (0) n (%)
  Dehydration, treatment-related AE: 2 (5) n (%)
  Dehydration, treatment-related grade ≥3 AE: 0 (0) n (%)
  Depression, all-grade AE of any cause: 1 (3) n (%)
  Diarrhoea, all-grade AE of any cause: 20 (51) n (%)
  Diarrhoea, grade ≥3 AE of any cause: 2 (5) n (%)
  Diarrhoea, treatment-related AE: 17 (44) n (%)
  Diarrhoea, treatment-related grade ≥3 AE: 2 (5) n (%)
  Dizziness, all-grade AE of any cause: 9 (23) n (%)
  Dry mouth, all-grade AE of any cause: 5 (13) n (%)
  Dry mouth, treatment-related AE: 3 (8) n (%)
  Dysgeusia, all-grade AE of any cause: 10 (26) n (%)
  Dysgeusia, treatment-related AE: 10 (26) n (%)
  Dyspepsia, treatment-related AE: 1 (3) n (%)
  Dyspnoea, grade ≥3 AE of any cause: 2 (5) n (%)
  Fatigue, all-grade AE of any cause: 25 (64) n (%)
  Fatigue, grade ≥3 AE of any cause: 5 (13) n (%)
  Fatigue, treatment-related AE: 22 (56) n (%)
  Fatigue, treatment-related grade ≥3 AE: 4 (10) n (%)
  Haematuria, grade ≥3 AE of any cause: 2 (5) n (%)
  Headache, all-grade AE of any cause: 4 (10) n (%)
  Headache, treatment-related AE: 0 (0) n (%)
  Hypercholesterolemia, treatment-related AE: 0 (0) n (%)
  Hyperglycaemia, all-grade AE of any cause: 18 (46) n (%)
  Hyperglycaemia, grade ≥3 AE of any cause: 5 (13) n (%)
  Hyperglycaemia, treatment-related AE: 17 (44) n (%)
  Hyperglycaemia, treatment-related grade ≥3 AE: 5 (13) n (%)
  Hyperkalaemia, grade ≥3 AE of any cause: 2 (5) n (%)
  Hypertension, grade ≥3 AE of any cause: 1 (3) n (%)
  Hypokalaemia, grade ≥3 AE of any cause: 1 (3) n (%)
  Hyponatremia, grade ≥3 AE of any cause: 1 (3) n (%)
  Hypophosphatemia, grade ≥3 AE of any cause: 4 (10) n (%)
  Hypophosphatemia, treatment-related AE: 3 (8) n (%)
  Hypophosphatemia, treatment-related grade ≥3 AE: 3 (8) n (%)
  Lymphopenia, grade ≥3 AE of any cause: 1 (3) n (%)
  Lymphopenia, treatment-related grade ≥3 AE: 0 (0) n (%)
  Musculoskeletal chest pain, grade ≥3 AE of any cause: 1 (3) n (%)
  Nausea, all-grade AE of any cause: 21 (54) n (%)
  Nausea, grade ≥3 AE of any cause: 1 (3) n (%)
  Nausea, treatment-related AE: 20 (51) n (%)
  Nausea, treatment-related grade ≥3 AE: 1 (3) n (%)
  Oedema peripheral, all-grade AE of any cause: 9 (23) n (%)
  On-study deaths: 0 n (%)
  Oropharyngeal pain, all-grade AE of any cause: 3 (8) n (%)
  Pain in extremity, grade ≥3 AE of any cause: 0 (0) n (%)
  Pneumonia, grade ≥3 AE of any cause: 2 (5) n (%)
  Pruritus generalised, all-grade AE of any cause: 12 (31) n (%)
  Pruritus generalised, treatment-related AE: 11 (28) n (%)
  Pruritus generalised, treatment-related grade ≥3 AE: 1 (3) n (%)
  Pruritus, all-grade AE of any cause: 10 (26) n (%)
  Pruritus, treatment-related AE: 7 (18) n (%)
  Pyrexia, all-grade AE of any cause: 8 (21) n (%)
  Rash maculo-papular, all-grade AE of any cause: 17 (44) n (%)
  Rash maculo-papular, grade ≥3 AE of any cause: 3 (8) n (%)
  Rash maculo-papular, treatment-related AE: 14 (36) n (%)
  Rash maculo-papular, treatment-related grade ≥3 AE: 3 (8) n (%)
  Rash, treatment-related AE: 1 (3) n (%)
  Rash, treatment-related grade ≥3 AE: 0 (0) n (%)
  Sepsis, grade ≥3 AE of any cause: 1 (3) n (%)
  Stomatitis (includes oropharyngeal pain and mucosal inflammation), treatment-related AE: 19 (49) n (%)
  Stomatitis, all-grade AE of any cause: 19 (49) n (%)
  Stomatitis, grade ≥3 AE of any cause: 3 (8) n (%)
  Stomatitis, treatment-related grade ≥3 AE: 3 (8) n (%)
  Thrombocytopenia, grade ≥3 AE of any cause: 2 (5) n (%)
  Thrombocytopenia, treatment-related grade ≥3 AE: 2 (5) n (%)
  Transitional cell carcinoma, grade ≥3 AE of any cause: 0 (0) n (%)
  Urinary tract infection, all-grade AE of any cause: 6 (15) n (%)
  Vomiting, all-grade AE of any cause: 13 (33) n (%)
  Vomiting, grade ≥3 AE of any cause: 1 (3) n (%)
  Vomiting, treatment-related AE: 12 (31) n (%)
  Weight decreased, all-grade AE of any cause: 6 (15) n (%)
  Weight decreased, treatment-related AE: 5 (13) n (%)
